The values below come from US12643867B2, “Compositions and uses thereof” (University of Virginia Patent Foundation, priority 2017, dated 2026).

Experiment [1] addresses Alpha (DGK alpha; only in reference sheet cells) (Rattus norvegicus, UniProt P51556). Put plainly: DGK isoform % Activity screen. The format is biochemical. The conditions noted are these: for activity at 1000 µM: read-out: 1 mM % Activity (section without isoform head; Alpha); for activity at 100 µM: read-out: 100 uM % Activity (section without isoform head; Alpha).
The target of a further experiment is Zeta (DGK zeta) (Homo sapiens, UniProt Q13574). Put plainly: DGK isoform % Activity screen. The format is biochemical. The conditions noted are these: for activity at 1000 µM: read-out: 1 mM % Activity, Zeta.
Zeta (DGK zeta), sequence (Q13574 whole entry, canonical isoform): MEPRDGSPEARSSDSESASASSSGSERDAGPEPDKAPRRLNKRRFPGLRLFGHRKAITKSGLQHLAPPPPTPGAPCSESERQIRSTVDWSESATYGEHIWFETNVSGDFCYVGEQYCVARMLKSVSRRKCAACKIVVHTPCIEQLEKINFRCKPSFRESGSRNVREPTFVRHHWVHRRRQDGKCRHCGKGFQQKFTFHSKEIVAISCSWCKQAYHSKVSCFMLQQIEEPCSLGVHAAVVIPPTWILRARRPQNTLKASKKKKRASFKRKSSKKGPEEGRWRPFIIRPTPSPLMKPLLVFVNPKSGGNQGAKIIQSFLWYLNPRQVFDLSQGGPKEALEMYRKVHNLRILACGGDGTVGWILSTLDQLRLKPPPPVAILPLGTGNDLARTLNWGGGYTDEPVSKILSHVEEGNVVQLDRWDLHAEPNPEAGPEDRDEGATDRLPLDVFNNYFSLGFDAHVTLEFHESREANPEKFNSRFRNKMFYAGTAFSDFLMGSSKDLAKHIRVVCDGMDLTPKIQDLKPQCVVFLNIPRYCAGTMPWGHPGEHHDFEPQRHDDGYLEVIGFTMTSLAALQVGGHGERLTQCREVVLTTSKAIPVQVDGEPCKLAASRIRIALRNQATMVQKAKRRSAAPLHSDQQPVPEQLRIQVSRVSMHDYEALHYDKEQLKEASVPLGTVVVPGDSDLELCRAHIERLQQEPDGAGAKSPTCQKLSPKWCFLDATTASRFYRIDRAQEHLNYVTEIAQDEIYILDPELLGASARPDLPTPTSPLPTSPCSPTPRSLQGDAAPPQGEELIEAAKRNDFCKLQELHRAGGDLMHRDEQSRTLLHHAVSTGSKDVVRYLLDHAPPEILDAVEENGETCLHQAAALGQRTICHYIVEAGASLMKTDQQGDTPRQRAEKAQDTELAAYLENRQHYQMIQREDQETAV
The next experiment addresses Gamma (DGK gamma) (Homo sapiens, UniProt P49619). Put plainly: DGK isoform % Activity screen. The format is biochemical. The following applies: for activity at 1000 µM: read-out: 1 mM % Activity, Gamma.
A further experiment has as its target T1, recombinant DGKα (Rattus norvegicus, UniProt P51556).
T1 construct: expressed in transfected cells; host or cells: HEK293T (SILAC HEK293T for LC-MS)
Put plainly: Gel-based ATP acyl phosphate chemical proteomic assay. The format is binding. The conditions noted are these: compounds 100 μM (ATP 1 mM; RF001 at indicated concentrations), 30 min; probe 10 μM. How it is done: Cell pellets were resuspended in kinase buffer (Dulbecco's PBS (DPBS, Hyclone), 20 mM MgCl2, EDTA-free protease inhibitors (Pierce)) and then lysed by sonication (3×1 sec pulse, 20% amplitude). The cell lysates were then subjected to centrifugation (100,000×g, 45 min at 4° C.) to isolate the cytosolic fraction in the supernatant and the membrane fraction as a pellet. The membrane pellet was resuspended in kinase buffer by sonication. […] The only exception was experiments involving DGKE; recombinant DGKE protein was most prominently expressed in the membrane fraction and so this fraction was utilized to study DGKE enzyme (see FIG. 8). Protein concentrations were measured using the Bio-Rad DC protein assay. Samples were stored at −80° C. until use.
Proteome concentration was adjusted to 2 mg/mL in kinase buffer. Proteomes were first pre-treated with compound (0.6 μL, 50× stock in DMSO) mixed with gentle flicking, and incubated for 30 min at 25° C. in a microfuge tube (30 μL reaction volume). […] Reactions were then quenched with 10 AL of 4×SDS-PAGE loading buffer. Protein samples (15 μL) were loaded onto 4-20% TGX Stain-Free Protein Midi Gel and resolved by SDS-PAGE at 150V for 55 min. Proteins were then transferred to a nitrocellulose blot by Bio-Rad Trans-Blot Turbo Transfer System (25V. 10 min) to enhance sensitivity. The nitrocellulose blot was then incubated in blocking solution (30 mL, 3% BSA in TBS-T) for 1 h at 25° C. with gentle shaking. The blot was then transferred immediately to antibody solution (30 mL, 5% BSA in ddH2O with 0.1% Tween20 and 1:3000 Streptavidin DyLight 550) and incubated for 2 h at 25° C. with gentle shaking. The blot was then rinsed 5 times for 5 min in TBS-T. and then transferred into ddH2O. The blot was then imaged by in-blot fluorescence scanning on a ChemiDoc MP Imaging System. Fluorescence intensity signals were normalized to total lane protein using the Bio-rad Stain Free imaging (Posch et al., 2013).
The percentage of enzyme activity remaining was determined by comparing integrated band intensities or luminescence of inhibitor—with DMSO-treated samples for gel-based chemical proteomic or ADP-glo assays, respectively. For both chemical proteomic and ADP-glo methods, nonlinear regression analysis was used to determine the IC50 values from a dose-response curve generated using GraphPad Prism. Data are shown as mean±s.e.m. Determination of significance was performed by one-way ANOVA. All statistical analyses were performed using GraphPad Prism.

Gamma (DGK gamma), sequence (P49619 whole entry, canonical isoform): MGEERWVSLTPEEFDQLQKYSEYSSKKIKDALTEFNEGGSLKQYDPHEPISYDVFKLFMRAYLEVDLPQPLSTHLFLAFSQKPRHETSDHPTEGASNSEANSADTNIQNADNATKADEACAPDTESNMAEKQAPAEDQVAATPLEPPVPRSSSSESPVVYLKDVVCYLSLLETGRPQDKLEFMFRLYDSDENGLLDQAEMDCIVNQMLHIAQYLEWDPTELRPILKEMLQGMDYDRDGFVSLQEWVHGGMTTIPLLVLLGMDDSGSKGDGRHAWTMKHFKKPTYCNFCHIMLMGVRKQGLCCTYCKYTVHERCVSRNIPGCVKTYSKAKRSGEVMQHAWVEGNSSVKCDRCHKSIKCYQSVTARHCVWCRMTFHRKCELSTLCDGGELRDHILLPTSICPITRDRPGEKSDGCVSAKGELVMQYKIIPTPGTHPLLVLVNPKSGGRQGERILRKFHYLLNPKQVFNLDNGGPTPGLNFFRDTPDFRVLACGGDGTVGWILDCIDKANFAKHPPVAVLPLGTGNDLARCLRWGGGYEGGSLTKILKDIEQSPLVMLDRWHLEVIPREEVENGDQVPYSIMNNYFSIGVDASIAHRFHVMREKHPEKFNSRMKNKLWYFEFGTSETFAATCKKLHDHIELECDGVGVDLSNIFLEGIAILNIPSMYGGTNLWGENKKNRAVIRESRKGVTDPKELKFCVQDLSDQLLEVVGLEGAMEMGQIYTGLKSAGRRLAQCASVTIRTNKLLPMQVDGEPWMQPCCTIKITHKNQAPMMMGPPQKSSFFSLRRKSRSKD
Alpha (DGK alpha; only in reference sheet cells), sequence (P51556 whole entry, canonical isoform): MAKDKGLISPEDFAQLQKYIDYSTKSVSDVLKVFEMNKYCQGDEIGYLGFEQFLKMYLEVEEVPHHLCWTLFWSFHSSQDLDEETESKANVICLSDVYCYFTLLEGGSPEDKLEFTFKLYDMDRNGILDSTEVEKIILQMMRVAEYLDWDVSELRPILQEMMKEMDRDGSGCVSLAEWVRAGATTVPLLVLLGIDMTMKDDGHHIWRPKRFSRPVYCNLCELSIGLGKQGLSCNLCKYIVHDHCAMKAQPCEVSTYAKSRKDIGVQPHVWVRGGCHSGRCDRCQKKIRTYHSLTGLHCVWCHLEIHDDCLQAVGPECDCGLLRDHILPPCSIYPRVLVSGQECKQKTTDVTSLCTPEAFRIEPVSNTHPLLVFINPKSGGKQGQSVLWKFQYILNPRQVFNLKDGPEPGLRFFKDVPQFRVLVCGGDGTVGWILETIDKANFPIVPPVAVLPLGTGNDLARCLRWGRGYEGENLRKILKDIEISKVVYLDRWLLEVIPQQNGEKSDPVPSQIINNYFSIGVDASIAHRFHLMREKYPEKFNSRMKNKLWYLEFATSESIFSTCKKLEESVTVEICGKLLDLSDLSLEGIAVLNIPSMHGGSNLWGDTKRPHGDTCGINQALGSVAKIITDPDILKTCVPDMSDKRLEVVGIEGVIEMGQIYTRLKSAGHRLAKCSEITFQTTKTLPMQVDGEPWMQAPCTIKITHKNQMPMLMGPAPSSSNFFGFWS
T1 sequence (P51556 whole entry): as the sequence (P51556 whole entry, canonical isoform) above

In the case of `Fc1ccc(C(c2ccc(F)cc2)C2CCNCC2)cc1` [TH010], in experiment [1], the activity at 1000 µM is 64%. Further, on Zeta (DGK zeta), the activity at 100 µM came to 96% and the activity at 1000 µM worked out at 30%.
Consider `Cc1ccc(C(=C2CCNCC2)c2ccc(C)cc2)cc1` [TH019], for which, in experiment [1], the activity at 100 µM was 92% and the activity at 1000 µM amounted to 1%. On Zeta (DGK zeta), the activity at 100 µM was determined as 103% and the activity at 1000 µM was found to be 0%.
The matching figures for `Fc1ccc(C(c2ccc(F)cc2)N2CCN(C3CCNCC3)CC2)cc1` [TH024]: 84%, 3%, 72% and 0%.
Regarding `Fc1ccc(C(c2ccc(F)cc2)N2CCN(CCCN3CCN(C(c4ccc(F)cc4)c4ccc(F)cc4)CC3)CC2)cc1` [TH033], the activity at 100 µM in experiment [1] was 72%; at Zeta (DGK zeta) it was 82%. In experiment [1], the activity at 1000 µM amounted to 4%.
Turning to `CC(=O)N1CCN(C(c2ccc(F)cc2)c2ccc(F)cc2)CC1` [TH016], the activity at 1000 µM in experiment [1] was determined as 139%. For the same compound, on Zeta (DGK zeta), the activity at 100 µM amounted to 98% and the activity at 1000 µM stood at 108%.
For the compound `Fc1ccc(C(=C2CCN(Cc3ccc4ccccc4n3)CC2)c2ccc(F)cc2)cc1` [TH029], in experiment [1], the activity at 100 µM worked out at 125% and the activity at 1000 µM turned out to be 73%. Also, at Zeta (DGK zeta), the activity at 100 µM was found to be 169% and the activity at 1000 µM was found to be 252%.
As for `Clc1ccc(C(=C2CCNCC2)c2ccc(Cl)cc2)cc1` [TH040], the activity at 100 µM came to 101% at Gamma (DGK gamma), 78% in experiment [1] and 85% on Zeta (DGK zeta). For the same compound, the activity at 1000 µM on Gamma (DGK gamma) came out at 5%; in experiment [1], 4%; at Zeta (DGK zeta) it was 0%.
In the case of `c1ccc(C(=C2CCNCC2)c2ccccc2)cc1` [TH011], in experiment [1], the activity at 100 µM was 78% and the activity at 1000 µM was 0%. In addition, at Zeta (DGK zeta), the activity at 100 µM was found to be 96% and the activity at 1000 µM was determined as 0%.
As to `OCCN1CCN(C(c2ccc(F)cc2)c2ccc(F)cc2)CC1` [TH030], the activity at 100 µM in experiment [1] was determined as 103%; at Zeta (DGK zeta), 91%. The activity at 1000 µM in experiment [1] was 36%; on Zeta (DGK zeta) it was 5%.
Taken in the same sequence, the figures for `CN(C)CCOc1ccc(/C(=C(/CCCl)c2ccccc2)c2ccccc2)cc1` [TH005] were 103%, 86%, 14% and 0%.
The matching figures for `OCCCN1CCN(C(c2ccc(F)cc2)c2ccc(F)cc2)CC1` [TH031]: 107%, 105%, 26% and 0%.
On to `Fc1ccc(C(=C2CCCN(Cc3ccccc3)C2)c2ccc(F)cc2)cc1` [TH014], for which the activity at 1000 µM stood at 160% in experiment [1] and 327% at Zeta (DGK zeta). Besides, the activity at 100 µM on Zeta (DGK zeta) was 140%.
As to `c1ccc2c(c1)-c1ccccc1C2N1CCNCC1` [TH002], in experiment [1], the activity at 100 µM amounted to 84% and the activity at 1000 µM was 0%. For the same compound, on Zeta (DGK zeta), the activity at 100 µM came to 98% and the activity at 1000 µM was 0%.
Regarding `Fc1ccc(C(c2ccc(F)cc2)N2CCN(CCCN3CCCC3)CC2)cc1` [TH032], in experiment [1], the activity at 100 µM amounted to 94% and the activity at 1000 µM is 8%. Moreover, on Zeta (DGK zeta), the activity at 100 µM was 80% and the activity at 1000 µM was determined as 0%.
Take `CS(=O)(=O)N1CCC(=C(c2ccc(F)cc2)c2ccc(F)cc2)CC1` [TH035]: in experiment [1], the activity at 100 µM was 88% and the activity at 1000 µM amounted to 40%. In addition, at Zeta (DGK zeta), the activity at 100 µM is 112% and the activity at 1000 µM turned out to be 100%.
Taken in the same sequence, the figures for `OC(c1ccc(F)cc1)(c1ccc(F)cc1)C1CCNCC1` [TH028] were 96%, 0%, 125% and 0%.
Take `c1ccc(C(c2ccccc2)C2CCNCC2)cc1` [TH012]: the activity at 1000 µM in experiment [1] worked out at 41%; at Zeta (DGK zeta), 15%. In addition, on Zeta (DGK zeta), the activity at 100 µM was determined as 99%.
As for `Cc1nc2sccn2c(=O)c1CCN1CCC(=C(c2ccccc2)c2ccc(F)cc2)CC1` [R59022], the “blockade of DGKα ATP probe labeling” value on recombinant DGKα is “blocked DGKα probe labeling”.
Take `CN1C2CCC1CC(OC(c1ccccc1)c1ccccc1)C2` (stereo not drawn) [TH004]: at Zeta (DGK zeta), the activity at 100 µM came out at 82% and the activity at 1000 µM worked out at 21%.
Turning to `O=c1c2ccccc2[nH]c(=S)n1CCN1CCC(=C(c2ccc(F)cc2)c2ccc(F)cc2)CC1` [R59949], on recombinant DGKα, the “blockade of DGKα ATP probe labeling” value is reported as “blocked DGKα probe labeling”.
As to `Fc1ccc(C(c2ccc(F)cc2)N2CCN(Cc3ccc4ccccc4n3)CC2)cc1` [TH022], in experiment [1], the activity at 100 µM stood at 103% and the activity at 1000 µM is 60%. Besides, at Zeta (DGK zeta), the activity at 100 µM amounted to 135% and the activity at 1000 µM stood at 193%.
Regarding `OC(c1ccc(C(F)(F)F)cc1)(c1ccc(C(F)(F)F)cc1)C1CCNCC1` [TH039], the results for the activity at 100 µM (on Gamma (DGK gamma); in experiment [1]; at Zeta (DGK zeta)) were 91%, 81% and 94%, respectively. Also, the activity at 1000 µM on Gamma (DGK gamma) was 1%; in experiment [1], 6%; at Zeta (DGK zeta), 1%.
For `Fc1ccc(C(c2ccc(F)cc2)N2CCNCC2)cc1` [TH001], the activity at 100 µM amounted to 99% at Gamma (DGK gamma), 72% in experiment [1] and 102% at Zeta (DGK zeta). Moreover, the activity at 1000 µM (at Gamma (DGK gamma); in experiment [1]; at Zeta (DGK zeta)) was 0% in each case.
Consider `CS(=O)(=O)N1CCN(C(c2ccc(F)cc2)c2ccc(F)cc2)CC1` [TH036], for which the activity at 100 µM in experiment [1] amounted to 93%; at Zeta (DGK zeta) it was 108%. The activity at 1000 µM in experiment [1] stood at 74%; on Zeta (DGK zeta), 105%.
The matching figures for `COc1ccc(C(=C2CCNCC2)c2ccc(OC)cc2)cc1` [TH025]: 79%, 103%, 4.4% and 0%.
